Counter-ions that a name gives are not always drawn.
Test: not given
Conditions: not given

| SMILES | melting point |
| --- | --- |
| CCOC(=O)c1cc(-c2csc(-c3ccnc(CC)c3)n2)c(=O)[nH]c1C [Example 29] | 270 °C (dec.) |
| CCOC(=O)c1cc(-c2csc(-c3cccs3)n2)c(=O)[nH]c1C [Example 27] | 230 °C (dec.) |
| CCOC(=O)c1cc(-c2csc(-c3ccccc3)n2)c(=O)[nH]c1C [Example 33, Ethyl 2-methyl-6-oxo-5-{2-phenyl(1,3-thiazol-4-yl)}-1,6-dihydro-3-pyridinecarboxylate] | 260 °C (dec.) |
| CCOC(=O)c1cc(-c2csc(-c3cccnc3)n2)c(=O)[nH]c1C [Example 39] | 230 °C (dec.) |
| CCOC(=O)c1cc(-c2csc(CS(=O)(=O)c3cccs3)n2)c(=O)[nH]c1C [Example 24, Ethyl 2-methyl-6-oxo-5-{2-[(2-thienylsulfonyl)methyl](1,3-thiazol-4-yl)}-1,6-dihydro-3-pyridinecarboxylate] | 300 °C (dec.) |

Next, values leading:

| melting point | SMILES |
| --- | --- |
| 260 °C (dec.) | CCOC(=O)c1cc(-c2csc(-c3ccnc(NCCNC(C)C)c3)n2)c(=O)[nH]c1C [Example 50, Ethyl 2-methyl-5-(2-(2-((2-((1-methylethyl)amino)ethyl)amino)-4-pyridinyl)-1,3-thiazol-4-yl)-6-oxo-1,6-dihydro-3-pyridinecarboxylate] |
| 280 °C (dec.) | CCOC(=O)c1cc(-c2csc(-c3ccnc(NCc4cccnc4)c3)n2)c(=O)[nH]c1C [Example 47, Ethyl 2-methyl-6-oxo-5-(2-(2-((3-pyridinylmethyl)amino)-4-pyridinyl)-1,3-thiazol-4-yl)-1,6-dihydro-3-pyridin carboxylate] |
| 250 °C (dec.) | CCOC(=O)c1cc(-c2csc(CCn3cccc(C(F)(F)F)c3=O)n2)c(=O)[nH]c1C [Example 51, Ethyl 2-methyl-6-oxo-5-(2-(2-(2-oxo-3-(trifluoromethyl)-1(2H)-pyridinyl)ethyl)-1,3-thiazol-4-yl)-1,6-dihydro-3-pyridinecarboxylate] |
| 250 °C (dec.) | CCOC(=O)c1cc(-c2csc(-c3ccnc(Cl)c3)n2)c(=O)[nH]c1C [Example 40] |
| 260 °C (dec.) | CCOC(=O)c1cc(-c2csc(-c3ccnc(NCC(C)C)c3)n2)c(=O)[nH]c1C [Example 46, Ethyl 2-methyl-5-(2-(2-((2-methylpropyl)amino)-4-pyridinyl)-1,3-thiazol-4-yl)-6-oxo-1,6-dihydro-3-pyridinecarboxylate] |
| 240 °C (dec.) | CCOC(=O)c1cc(-c2csc(-c3ccc(OC)cc3)n2)c(=O)[nH]c1C [Example 41, Ethyl 2-methyl-6-oxo-5-{2-[4-methoxyphenyl](1,3-thiazol-4-yl)}-1,6-dihydro-3-pyridinecarboxylate] |
| 250 °C (dec.) | CCOC(=O)c1cc(-c2csc(-c3ccnc(NCCN(CC)CC)c3)n2)c(=O)[nH]c1C [Example 52, Ethyl 5-(2-(2-((2-(diethylamino)ethyl)amino)-4-pyridinyl)-1,3-thiazol-4-yl)-2-methyl-6-oxo-1,6-dihydro-3-pyridinecarboxylate] |
| > 260 °C | CCOC(=O)c1cc(-c2csc(-c3ccnc(N)c3)n2)c(=O)[nH]c1C [Example 65, Ethyl 2-methyl-6-oxo-5-(2-(2-(amino)-4-pyridinyl)-1,3-thiazol-4-yl)-1,6-dihydro-3-pyridinecarboxylate] |
| > 260 °C | CCOC(=O)c1cc(-c2csc(-c3ccnc(NCC4CC4)c3)n2)c(=O)[nH]c1C (as salt: HCl) [Example 61, Ethyl 5-{2-[2-(cyclopropylmethyl-amino)-pyridin-4-yl]-thiazol-4-yl}-2-methyl-6-oxo-1,6-dihydro-3-pyridinecarboxylate] |

Test: Cell proliferation assay (BrdU incorporation)
Type: cell-based
Conditions: Homo sapiens, 48 h incubation, cell line not given, read-out: inhibited proliferation IC50
Procedure: Cell proliferation was measured using a colorimetric immunoassay (B/M Roche #164 7229), based on the measurement of pyrimidine analog BrdU incorporation during DNA synthesis in proliferating cells. Cells, e.g., human PC-3 prostate carconima cells, huFSF normal human foreskin fibroblast cells, HCT 116 human colon carcinoma cells or HT 29 human colon carcinoma cells, were cultured in a 96-well plate for 24 h, until a cell count of 3×10^3 to 6×10^3 cells per well in duplicate wells were achieved, in a well volume of 200 μL. The media was changed and 1 μL of 200× control inhibitors or compounds was added to each well. Cells are incubated for 48 h at 37° C. The cells were labeled with BrdU for 4 h at 37° C. The labeling medium was removed and in one step, the cells were fixed and the DNA was denatured (30 min at RT). Anti-BrdU-POD antibody was added to bind to the BrdU incorporated in newly synthesized cellular DNA (60-90 min at RT). The cells were washed 3× with washing buffer, substrate (100 μL) was added and the cells were incubated for 10 min at RT. The substrate reaction was stopped by adding 25 μL of 1M H2SO4. The amount of BrdU incorporated was quantified by measuring the absorbance at 450 nm using ELISA reader. IC50's were calculated using GraFit (Sigma).

| SMILES | IC50 [nM] |
| --- | --- |
| CCOC(=O)c1cc(-c2csc(CS(=O)(=O)c3ccccc3)n2)c(=O)[nH]c1C(C)C [Example 12, Ethyl 2-isopropyl-6-oxo-5-{2-[(phenylsulfonyl)methyl](1,3-thiazol-4-yl)}-1,6-dihydro-3-pyridinecarboxylate] | < 1000 |
| CCOC(=O)c1cc(-c2csc(-c3ccnc(NCCNC(C)C)c3)n2)c(=O)[nH]c1C [Example 50, Ethyl 2-methyl-5-(2-(2-((2-((1-methylethyl)amino)ethyl)amino)-4-pyridinyl)-1,3-thiazol-4-yl)-6-oxo-1,6-dihydro-3-pyridinecarboxylate] | < 1000 |
| CCOC(=O)c1cc(-c2csc(-c3ccnc(NCc4cccnc4)c3)n2)c(=O)[nH]c1C [Example 47, Ethyl 2-methyl-6-oxo-5-(2-(2-((3-pyridinylmethyl)amino)-4-pyridinyl)-1,3-thiazol-4-yl)-1,6-dihydro-3-pyridin carboxylate] | < 1000 |
| CCOC(=O)c1cc(-c2csc(CS(=O)(=O)c3ccccc3)n2)c(=O)[nH]c1CC [Example 3, Ethyl 2-ethyl-6-oxo-5-{2-[(phenylsulfonyl)methyl](1,3-thiazol-4-yl)}-1,6-dihydro-3-pyridinecarboxylate] | < 1000 |
| CCOC(=O)c1cc(-c2csc(-c3ccncc3)n2)c(=O)[nH]c1CC [Example 1, Ethyl 2-ethyl-6-oxo-5-(2-(4-pyridinyl)-1,3-thiazol-4-yl)-1,6-dihydro-3-pyridinecarboxylate] | < 1000 |
| CCOC(=O)c1cc(-c2csc(CS(=O)(=O)c3cccs3)n2)c(=O)[nH]c1CC [Example 2, Ethyl 2-ethyl-6-oxo-5-{2-[(thienylsulfonyl)methyl](1,3-thiazol-4-yl)}-1,6-dihydro-3-pyridinecarboxylate] | < 1000 |
| CCOC(=O)c1cc(-c2csc(CS(=O)(=O)c3cccs3)n2)c(=O)[nH]c1C [Example 24, Ethyl 2-methyl-6-oxo-5-{2-[(2-thienylsulfonyl)methyl](1,3-thiazol-4-yl)}-1,6-dihydro-3-pyridinecarboxylate] | < 1000 |

From patent publication US20040147561A1, “Pyrid-2-one derivatives and methods of use” (priority 2002, published 2004)
